We go through three molecules from publication PMC2588526 (Nucleic Acids Research, 2008).

Data set [1] addresses T1, GlTgs (Giardia duodenalis, UniProt A8BW33).
T1 sequence (A8BW33 1-258): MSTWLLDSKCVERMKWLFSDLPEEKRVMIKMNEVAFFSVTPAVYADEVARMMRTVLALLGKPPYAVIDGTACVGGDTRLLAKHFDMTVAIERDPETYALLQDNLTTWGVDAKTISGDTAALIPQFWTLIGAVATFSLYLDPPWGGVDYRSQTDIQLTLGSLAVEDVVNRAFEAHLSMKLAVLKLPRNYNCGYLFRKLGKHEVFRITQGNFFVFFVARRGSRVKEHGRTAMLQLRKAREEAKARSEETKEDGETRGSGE
Briefly: 3H methyl transfer, PEI-cellulose TLC. The settings on record: 0.1 mM m7GDP, 5 μM [methyl-3H]AdoMet, 37 °C; single methylation to DMG. Format: biochemical.

In data set [2] the target is T2, TvTgs (Trichomonas vaginalis, UniProt A2DM16).
T2 sequence (A2DM16 1-280): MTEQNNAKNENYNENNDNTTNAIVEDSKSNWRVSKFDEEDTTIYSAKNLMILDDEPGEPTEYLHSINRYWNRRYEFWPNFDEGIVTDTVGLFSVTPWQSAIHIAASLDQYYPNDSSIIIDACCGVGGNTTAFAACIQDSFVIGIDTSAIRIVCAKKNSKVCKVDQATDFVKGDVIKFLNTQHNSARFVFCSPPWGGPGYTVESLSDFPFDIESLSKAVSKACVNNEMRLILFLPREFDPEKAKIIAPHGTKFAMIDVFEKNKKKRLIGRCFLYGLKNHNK
Briefly: radiometric 3H methyl transfer, DEAE filter. Format: biochemical.

Substrate in data set [3]: C[n+]1cn([C@@H]2O[C@H](COP(=O)(O)OP(=O)(O)O)[C@@H](O)[C@H]2O)c2nc(N)[nH]c(=O)c21
Briefly: radiometric 3H methyl transfer, DEAE filter. The settings on record: [methyl-3H]AdoMet co-substrate, pH 7.5, 37 °C. Format: biochemical, Trichomonas vaginalis.

Substrate in data set [4]: C[n+]1cn([C@@H]2O[C@H](COP(=O)(O)OP(=O)(O)OP(=O)(O)O)[C@@H](O)[C@H]2O)c2nc(N)[nH]c(=O)c21
Briefly: radiometric 3H methyl transfer, DEAE filter. The format is biochemical, Trichomonas vaginalis. The settings on record: [methyl-3H]AdoMet co-substrate, pH 7.5, 37 °C.

On to `C[n+]1cn([C@@H]2O[C@H](COP(=O)(O)OP(=O)(O)O)[C@@H](O)[C@H]2O)c2nc(N)[nH]c(=O)c21` [m^7GDP], for which, in data set [1], the “3H methyl transfer, PEI-cellulose TLC” value was “TvTgs (Tv), GlTgs (Gl) and SpTgs (Sp) were compared side by side”.

For the molecule `Nc1ncnc2c1ncn2[C@@H]1O[C@H](CSCC[C@H](N)C(=O)O)[C@@H](O)[C@H]1O` [AdoHcy], the half-inhibitory concentration (IC50) (commonly the concentration that gives 50% inhibition) in data set [2] was about 250 µM.

B1: TvTgs (Trichomonas vaginalis G3) (protein)
chain: MTEQNNAKNENYNENNDNTTNAIVEDSKSNWRVSKFDEEDTTIYSAKNLMILDDEPGEPTEYLHSINRYWNRRYEFWPNFDEGIVTDTVGLFSVTPWQSAIHIAASLDQYYPNDSSIIIDACCGVGGNTTAFAACIQDSFVIGIDTSAIRIVCAKKNSKVCKVDQATDFVKGDVIKFLNTQHNSARFVFCSPPWGGPGYTVESLSDFPFDIESLSKAVSKACVNNEMRLILFLPREFDPEKAKIIAPHGTKFAMIDVFEKNKKKRLIGRCFLYGLKNHNK
As for B1, the results for the Km in data set [3] and in data set [4] were 250 +/– 30.7 μM and 1.59 +/– 0.205 mM, respectively.
